{
  "source": "patent US8729053B2",
  "about": "“Nuclear factor kappa B pathway inhibitor composition and use of same” (The United States of America, as represented by the …, priority 2008, dated 2014)",
  "key": {"[1]": {"system": "STAT3", "test": "Immunoblot of TPA-inducible STAT3 phosphorylation", "assay_type": "cell-based", "details": "17.0 μM and 8.5 μM pretreatment", "method": "To measure endogenous level of several proteins in response to TPA induction and compound I, HEK293 cells were lysed with RIPA buffer (10 mM Tris-HCl pH 7.5, 1 mM EDTA, 0.1% sodium dodecyl sulfate, 0.1% deoxycholate, and protease inhibitor). Whole cell extracts were subjected to immunoblot analysis with the following antibodies: p65 (F-6), p50 (E-10), p52 (C-5), RelB (C-19), IκBα (C-21), PCNA (F-2) were obtained from Santa Cruz Biotechnology (Santa Cruz, Calif.). IKKα, IKKβ, IKKγ, phospho-IκBα, phospho-IKKα/β, phospho-IKKγ, pohospho-Stat3 (Tyr 705 and Ser 727), phospho-p65 (Ser536 and Ser276), phospho-p44/42, phospho-JNKs were purchased from Cell Signaling (Danvers, Mass.), and α-tubulin from Sigma (St. Louis, Mo.). Nuclear and cytoplasmic extracts were prepared with HEK293 cells by NE-PER Nuclear and Cytoplasmic Extraction Reagents (Pierce Biotechnology, Rockford, Ill.) according to the manufacturer's protocol.\nThe selectivity of compound I was evaluated by measuring phosphorylation of proteins involved in the AP-1 induction pathway. AP-1 dependent transcription can be activated by MAP Kinases JNK, ERK 1/2 (p44/42). […] At these concentrations compound I, in contrast, completely repressed major regulators in the NFκB activation pathway. JNKs are activated by a variety of environmental stresses responsible for AP-1 activation through c-Jun phosphorylation. […]"}, "[2]": {"system": "VEGF promoter", "test": "VEGF promoter luciferase reporter assay in HEK293 cells", "assay_type": "cell-based, human", "details": "TPA 10 ng/ml 18 hours", "method": "All expression plasmids were transiently transfected into HEK293 cells in a 96-well plate (0.1 μg/well) by using Effectene transfection reagent (Qiagen, Valencia, Calif.) according to the manufacturer's manual. HEK293 cells were maintained in Dulbecco's modified Eagle medium (Sigma, St. Louis, Mo.) supplemented with 10% fetal bovine serum (Atlanta Biologicals, Lawrenceville, Ga.) and incubated at 37° C. in a 5% CO2 incubator. After 24 hrs incubation, the medium was changed to DMEM with 0.2% FBS, and the transfectants were exposed to various concentrations of compound I and TPA (10 ng/ml). Cells were lysed with passive lysis buffer and the luciferase assay was performed using the Firefly-Luciferase reporter assay system (Promega, Madison, Wis.) and MLX Luminometer (Dynex Technology, Chantilly, Va.).\nThree different luciferase reporter genes, AP-1 reporter containing four times TRE consensus originated from GCN4 and SRE reporter purchased from Stratagene (La Jolla, Calif.) respectively are as described previously (Suzukawa et al., Environ. Health Perspect., 2002, 110, 865-70). […]\nInhibition of NFκB transactivation would be expected to result in suppressed expression of genes whose transcription depends on NFκB. Quantitative RT-PCR was used to measure endogenous levels of IL-6 mRNA, transcribed from a gene whose transcription depends on NFκB but not AP-1. […]"}, "[3]": {"system": "JB6 cells (clone 41)", "test": "JB6 soft agar cell transformation assay", "assay_type": "cell-based, mouse", "details": "for Transformation response to TPA: 10 days, TPA 10 ng/ml", "method": "JB6 cells (clone 41) were used to assess the inhibitory activity of compound I using CytoSelect 96-well Cell Transformation Assay (Cell Biolabs, Huissen, Netherlands) as Soft Agar Assay according to manufacturer's instructions. Cells were incubated for 10 days in 0.4% agar medium over 0.6% agar containing TPA or TPA with compound I or DMSO as a control. To measure anchorage-independent growth, agar-layers were dissolved and lysed. 10 μl of the lysed solutions of each well were mixed with CyQuant and the fluorescence read by iQ5 with a FAM filter of 485/520 nm. As an alternative analysis, cell dose curves of JB6 cells were quantified by the End point using CyQuant to indicate relative anchorage-independent colony number.\nIn order to evaluate the potential therapeutic activity of the compound, tests for the biological activity of compound I were performed. The compound is non-toxic to MCF-7, T47D, and MDA-MB-231 breast cancer cells as estimated by XTT assay at 10 μM. To determine the effects of compound I on invasion by breast cancer cell lines, a matrigel invasion assay was used. The levels of phosphorylated IκBα were confirmed in TPA treated ER-positive (MCF-7 and T47D) and ER-negative (MDA-MB-231) breast cancer cell lines and compared the levels to those after pretreatment with compound I. Although induced levels of phosphorylated IκBα varied with the cell line, IκBα phosphorylation was eliminated by compound I treatment in all three breast cancer cell lines. Compound I also produced no effect on the estrogen receptor activity in the ER-positive breast cancer cells using ERE promoter luciferase reporter assay. Invasion capacity of breast cancer cells was increased by TPA stimulation compared to DMSO treated vehicle control. […] Following anchorage-independent colony induction in TPA-treated cells without or with compound I, colonies were lysed and measured with CyQuant GR Dye to detect DNA by fluorescence plate reader as a measure of colony count. Total transformed colony numbers were calculated from RFU and cell dose curve of JB6 cells. […]"}},
  "note": "Where a name gives a salt, the structure may show the parent alone.",
  "data": [
    {"molecule": "Cc1cc(N)ccc1N=Nc1ccc(S(=O)(=O)CCOS(=O)(=O)O)cc1", "note": "[compound I, 2-(4-((4-amino-2-methylphenyl)diazenyl)phenylsulfonyl)ethyl hydrogen sulfate]", "values": [
      {"measurement": "TPA inducible phosphorylation of STAT3", "setting": "[1]", "value": "no repression"},
      {"measurement": "Luciferase activity driven by VEGF promoter", "setting": "[2]", "value": "did not significantly affect"},
      {"measurement": "Tumor promoter induced transformation of JB6 cells", "setting": "[3]", "value": "inhibits"},
      {"measurement": "Transformation response to TPA", "setting": "[3]; 1.1 μM", "value": "decreased"},
      {"measurement": "Transformation response to TPA", "setting": "[3]; 17.0 μM to 2.1 μM", "value": "repressed to below vehicle control level"}
    ]}
  ]
}
